In the oligonucleotide strings, read from the 5' end, every base follows the letter of its sugar. An asterisk marks phosphorothioate; unmarked linkages are phosphodiester. Other units and linkages are bracketed, terminal groups are in braces. A string of capitals states the bases alone. e = 2'-O-(2-methoxyethyl) (MOE); [5mC] = 5-methylcytosine; d = 2'-deoxy (DNA)

The first series concerns human Factor XI mRNA. Put plainly: Antisense inhibition in HepG2 cells by microwalk gapmers, 75 nM, lipofectin (Example 3). The format is cell-based. Conditions: HepG2 cells, 75 nM, oligonucleotides targeted to nucleobases 738 to 762 of SEQ ID NO: 1. The protocol:
These gapmers were designed by creating gapmers shifted slightly upstream and downstream (i.e. “microwalk”) of the original gapmers from Table 3. Gapmers were also created with various motifs, e.g. 5-10-5 MOE, 3-14-3 MOE, and 2-13-5 MOE. These gapmers were tested in vitro. Cultured HepG2 cells at a density of 10,000 cells per well were transfected using lipofectin reagent with 75 nM antisense oligonucleotide. After a treatment period of approximately 24 hours, RNA was isolated from the cells and Factor XI mRNA levels were measured by quantitative real-time PCR. Factor XI mRNA levels were adjusted according to total RNA content, as measured by RIBOGREEN®. Results are presented as percent inhibition of Factor XI, relative to untreated control cells.
The chimeric antisense oligonucleotides in Table 4 were designed as 5-10-5 MOE, 3-14-3 MOE, and 2-13-5 MOE gapmers. The first listed gapmers in Table 4 are the original gapmers (see Table 3) from which the remaining gapmers were designed via microwalk and are designated by an asterisk. The 5-10-5 gapmers are 20 nucleotides in length, wherein the central gap segment is comprised of 10 2′-deoxynucleotides and is flanked on both sides (in the 5′ and 3′ directions) by wings comprising 5 nucleotides each. The 3-14-3 gapmers are 20 nucleotides in length, wherein the central gap segment is comprised of 14 2′-deoxynucleotides and is flanked on both sides (in the 5′ and 3′ directions) by wings comprising 3 nucleotides each. The 2-13-5 gapmers are 20 nucleotides in length, wherein the central gap segment is comprised of 13 2′-deoxynucleotides. The central gap is flanked on the 5′ end with a wing comprising 2 nucleotides and on the 3′ end with a wing comprising 5 nucleotides. For each of the motifs (5-10-5, 3-14-3, and 2-13-5), each nucleotide in the 5′ wing segment and each nucleotide in the 3′ wing segment has a 2′-MOE modification. The internucleoside linkages throughout each gapmer are phosphorothioate (P═S) linkages. All cytidine residues throughout each gapmer are 5-methylcytidines. “Target start site” indicates the 5′-most nucleotide to which the gapmer is targeted. “Target stop site” indicates the 3′-most nucleotide to which the gapmer is targeted. Each gapmer listed in Table 4 is targeted to SEQ ID NO: 1 (GENBANK Accession No. NM_000128.3).
In the case of “416834 (antisense eG*eT*e[5mC]*eA*eT*d[5mC]*d[5mC]*dG*dT*dG*d[5mC]*dA*dT*d[5mC]*dT*eT*eT*e[5mC]*eT*eT) [compound 416834]”, the “% inhibition of human Factor XI mRNA levels” value (“% inhibition” below) is on record as 58%.
Same read-out and setting: for “416977 (antisense eA*eT*d[5mC]*d[5mC]*dG*dT*dG*d[5mC]*dA*dT*d[5mC]*dT*dT*dT*d[5mC]*eT*eT*eG*eG*e[5mC]) [compound 416977]” the value was 82%; for “416898 (antisense e[5mC]*e[5mC]*eG*dT*dG*d[5mC]*dA*dT*d[5mC]*dT*dT*dT*d[5mC]*dT*dT*dG*dG*e[5mC]*eA*eT) [compound 416898]”, 88%; for “416980 (antisense eG*eT*d[5mC]*dA*dT*d[5mC]*d[5mC]*dG*dT*dG*d[5mC]*dA*dT*d[5mC]*dT*eT*eT*e[5mC]*eT*eT) [compound 416980]”, 87%.
In the case of “416830 (antisense eT*e[5mC]*e[5mC]*eG*eT*dG*d[5mC]*dA*dT*d[5mC]*dT*dT*dT*d[5mC]*dT*eT*eG*eG*e[5mC]*eA) [compound 416830]”, the “% inhibition” value came to 81%.
Take “416902 (antisense eT*e[5mC]*eA*dT*d[5mC]*d[5mC]*dG*dT*dG*d[5mC]*dA*dT*d[5mC]*dT*dT*dT*d[5mC]*eT*eT*eG) [compound 416902]”: the “% inhibition” value came to 46%.

Staying with this series, now noted: HepG2 cells, 75 nM, oligonucleotides targeted to nucleobases 1018 to 1042 of SEQ ID NO: 1.
For “416836 (antisense eA*eA*e[5mC]*e[5mC]*eG*dG*dG*dA*dT*dG*dA*dT*dG*dA*dG*eT*eG*e[5mC]*eA*eG) [compound 416836]”, the “% inhibition” value is listed as 89%.
Still for that read-out and setting: for “416904 (antisense e[5mC]*e[5mC]*eG*dG*dG*dA*dT*dG*dA*dT*dG*dA*dG*dT*dG*d[5mC]*dA*eG*eA*eT) [compound 416904]” the value was 90%; for “416907 (antisense e[5mC]*eA*eA*d[5mC]*d[5mC]*dG*dG*dG*dA*dT*dG*dA*dT*dG*dA*dG*dT*eG*e[5mC]*eA) [compound 416907]”, 90%; for “416837 (antisense e[5mC]*eA*eA*e[5mC]*e[5mC]*dG*dG*dG*dA*dT*dG*dA*dT*dG*dA*eG*eT*eG*e[5mC]*eA) [compound 416837]”, 90%.

The series is the same for the next values; noted with them: HepG2 cells, 75 nM, oligonucleotides targeted to nucleobases 1062 to 1091 of SEQ ID NO: 1.
“416911 (antisense eA*eG*eA*dT*dT*d[5mC]*dT*dT*dT*dG*dG*dG*d[5mC]*d[5mC]*dA*dT*dT*e[5mC]*e[5mC]*eT) [compound 416911]”: the “% inhibition” value came to 90%.
On the same count and under the same terms, for “416844 (antisense e[5mC]*eT*eT*eT*eG*dA*dG*dA*dT*dT*d[5mC]*dT*dT*dT*dG*eG*eG*e[5mC]*e[5mC]*eA) [compound 416844]” the value was 90%; for “416912 (antisense eG*eA*eG*dA*dT*dT*d[5mC]*dT*dT*dT*dG*dG*dG*d[5mC]*d[5mC]*dA*dT*eT*e[5mC]*e[5mC]) [compound 416912]”, 92%.
Same read-out and setting: for “416916 (antisense e[5mC]*eT*eT*dT*dG*dA*dG*dA*dT*dT*d[5mC]*dT*dT*dT*dG*dG*dG*e[5mC]*e[5mC]*eA) [compound 416916]” the value was 91%; for “416913 (antisense eT*eG*eA*dG*dA*dT*dT*d[5mC]*dT*dT*dT*dG*dG*dG*d[5mC]*d[5mC]*dA*eT*eT*e[5mC]) [compound 416913]”, 93%.
On the same count and under the same terms, to “416841 (antisense eG*eA*eG*eA*eT*dT*d[5mC]*dT*dT*dT*dG*dG*dG*d[5mC]*d[5mC]*eA*eT*eT*e[5mC]*e[5mC]) [compound 416841]” belongs 87%.
Consider “416919 (antisense eT*eT*eT*d[5mC]*dT*dT*dT*dG*dA*dG*dA*dT*dT*d[5mC]*dT*dT*dT*eG*eG*eG) [compound 416919]”, for which the “% inhibition” value is listed as 27%.
Still for that read-out and setting: for “412215 (antisense eA*eT*eT*e[5mC]*eT*dT*dT*dG*dG*dG*d[5mC]*d[5mC]*dA*dT*dT*e[5mC]*e[5mC]*eT*eG*eG) [compound 412215]” the value was 82%; for “416996 (antisense eT*eT*dT*d[5mC]*dT*dT*dT*dG*dA*dG*dA*dT*dT*d[5mC]*dT*eT*eT*eG*eG*eG) [compound 416996]”, 22%; for “416843 (antisense eT*eT*eT*eG*eA*dG*dA*dT*dT*d[5mC]*dT*dT*dT*dG*dG*eG*e[5mC]*e[5mC]*eA*eT) [compound 416843]”, 89%.

The series is the same for the next values; noted with them: HepG2 cells, 75 nM, oligonucleotides targeted to nucleobases 1275 to 1318 of SEQ ID NO: 1.
As to “417013 (antisense e[5mC]*eG*dG*dA*d[5mC]*dG*dG*d[5mC]*dA*dT*dT*dG*dG*dT*dG*e[5mC]*eA*e[5mC]*eA*eG) [compound 417013]”, the “% inhibition” value amounted to 86%.
Still for that read-out and setting: to “417010 (antisense eA*e[5mC]*dG*dG*d[5mC]*dA*dT*dT*dG*dG*dT*dG*d[5mC]*dA*d[5mC]*eA*eG*eT*eT*eT) [compound 417010]” belongs 81%; to “416928 (antisense eA*eT*eT*dG*dG*dT*dG*d[5mC]*dA*d[5mC]*dA*dG*dT*dT*dT*d[5mC]*dT*eG*eG*e[5mC]) [compound 416928]”, 91%; to “417020 (antisense e[5mC]*eT*dG*dG*d[5mC]*dA*dG*d[5mC]*dG*dG*dA*d[5mC]*dG*dG*d[5mC]*eA*eT*eT*eG*eG) [compound 417020]”, 84%.
Same read-out and setting: to “416940 (antisense eG*e[5mC]*eA*dG*d[5mC]*dG*dG*dA*d[5mC]*dG*dG*d[5mC]*dA*dT*dT*dG*dG*eT*eG*e[5mC]) [compound 416940]” belongs 92%; to “416932 (antisense e[5mC]*eG*eG*d[5mC]*dA*dT*dT*dG*dG*dT*dG*d[5mC]*dA*d[5mC]*dA*dG*dT*eT*eT*e[5mC]) [compound 416932]”, 92%; to “417001 (antisense eG*eT*dG*d[5mC]*dA*d[5mC]*dA*dG*dT*dT*dT*d[5mC]*dT*dG*dG*e[5mC]*eA*eG*eG*e[5mC]) [compound 417001]”, 83%.
The same measure, in the same setting: for “417014 (antisense eG*e[5mC]*dG*dG*dA*d[5mC]*dG*dG*d[5mC]*dA*dT*dT*dG*dG*dT*eG*e[5mC]*eA*e[5mC]*eA) [compound 417014]” the value was 87%; for “416921 (antisense e[5mC]*eA*e[5mC]*dA*dG*dT*dT*dT*d[5mC]*dT*dG*dG*d[5mC]*dA*dG*dG*d[5mC]*e[5mC]*eT*e[5mC]) [compound 416921]”, 88%; for “416927 (antisense eT*eT*eG*dG*dT*dG*d[5mC]*dA*d[5mC]*dA*dG*dT*dT*dT*d[5mC]*dT*dG*eG*e[5mC]*eA) [compound 416927]”, 87%.
As for “417018 (antisense eG*eG*d[5mC]*dA*dG*d[5mC]*dG*dG*dA*d[5mC]*dG*dG*d[5mC]*dA*dT*eT*eG*eG*eT*eG) [compound 417018]”, the “% inhibition” value came out at 82%.
Still for that read-out and setting: for “416939 (antisense e[5mC]*eA*eG*d[5mC]*dG*dG*dA*d[5mC]*dG*dG*d[5mC]*dA*dT*dT*dG*dG*dT*eG*e[5mC]*eA) [compound 416939]” the value was 88%; for “416920 (antisense eA*e[5mC]*eA*dG*dT*dT*dT*d[5mC]*dT*dG*dG*d[5mC]*dA*dG*dG*d[5mC]*d[5mC]*eT*e[5mC]*eG) [compound 416920]”, 88%; for “416930 (antisense eG*e[5mC]*eA*dT*dT*dG*dG*dT*dG*d[5mC]*dA*d[5mC]*dA*dG*dT*dT*dT*e[5mC]*eT*eG) [compound 416930]”, 87%.
The same measure, in the same setting: for “416938 (antisense eA*eG*e[5mC]*dG*dG*dA*d[5mC]*dG*dG*d[5mC]*dA*dT*dT*dG*dG*dT*dG*e[5mC]*eA*e[5mC]) [compound 416938]” the value was 90%; for “416935 (antisense eG*eG*eA*d[5mC]*dG*dG*d[5mC]*dA*dT*dT*dG*dG*dT*dG*d[5mC]*dA*d[5mC]*eA*eG*eT) [compound 416935]”, 92%.
Same read-out and setting: to “416934 (antisense eG*eA*e[5mC]*dG*dG*d[5mC]*dA*dT*dT*dG*dG*dT*dG*d[5mC]*dA*d[5mC]*dA*eG*eT*eT) [compound 416934]” belongs 90%.

The record behind these values is patent US20120083522A1, “MODULATION OF INFLAMMATORY RESPONSES BY FACTOR XI” (Isis Pharmaceuitcals, inc., priority 2009, published 2012).
